Laboratory results from patent US10294204B2, “Fluorescence compounds and preparation method thereof” (BioActs Co., Ltd., priority 2016, dated 2019).
Values belong to the molecule of their own block, whether it stands above or below them.

Tests used:
Type in all cases: physicochemical
[1] = Test Example 1: absorption and fluorescence intensity with and without the alkylcarboxyaminocyanuric chloride substituent
Description: According to [Chemical Formula 1] disclosed herein, compounds to which a substituent including cyanuric chloride bound with an aminoalkylcarboxylic acid is introduced are prepared and optical properties thereof are compared with each other. Glycine is used as an aminoalkylcarboxylic acid to obtain Compound 1 (Example 1.7) disclosed herein, and the optical properties thereof are compared with those of the compound (Example 1.3) including no alkylcarboxyamino cyanuric chloride substituent introduced thereto.
At the same concentration, the compounds of Example 1.7 and Example 1.3 are determined for absorption wavelength and intensity and the results are shown in FIG. 1A. […] To perform accurate comparison of fluorescence wavelength intensity, the concentration of each of the compounds of Example 1.7 and Example 1.3 is corrected so that they may have the same absorption intensity, and then the fluorescence wavelength and intensity of each compound are determined.

[2] = Test Example 4 (1),(2): fluorescence intensity of free dye versus reference fluorescent dye
Description: (§1) Compound 20 and a reference fluorescent dye (Alexa Fluor 647 NHS ester) are compared with each other in terms of fluorescence intensity. DMF is added to the two types of fluorescent dyes to provide stock solutions and each solution is adjusted to the same concentration of 10 mg/mL. Next, pH 7.4 10 mM phosphate buffered saline (hereinafter, 1×PBS) is used to dilute the solution to a concentration of 19.5 nM and fluorescence is determined under the setting of Excitation 560 nm. The fluorescence determination is carried out by using LS 55 Fluorescence spectrometer (Perkin Elmer).
as §1, with “18” for “20”, “555” for “647”, “552” for “560”

[3] = Test Example 4 (3),(4): relative quantum yield based on Rhodamine 6G; details: pH 7.4 1xPBS
Description: (§2) Based on Rhodamine 6G (TCI), relative quantum yield of Compound 20 and that of the reference fluorescent dye (Alexa Fluor 647 NHS ester) are determined. DMF is added to the two types of fluorescent dyes and Rhodamine 6G to 10 mg/mL to provide stock solutions. Next, pH 7.4 1×PBS is used to dilute the solutions to a concentration of 10 μM and absorption and fluorescence are determined. Herein, 1/2 dilution is carried out from a concentration of 10 μM and then absorption and fluorescence are determined 10 times totally up to the sample of 1/512× concentration. The determined values are introduced to the following Mathematical Formula 1 to analyze the relative quantum yield and the results are shown in the following Table 3 and FIG. 6.
[formula] • Q=Quantum Yield • I=Fluorophore • OD=Absorbance • SubscriptR=Rodamine 6G
as §2, with “18” for “20”, “555” for “647”, “to” for “to the following”, “yield. The” for “yield and the results are shown in the”, “4” for “3”, “7 show the relative quantum yield of each dye.” for “6.”

[4] = Test Example 2: fluorescence intensity as a function of concentration in PBS (plate reader), same absorption intensity; set-up: increment of fluorescence intensity compared to Compound 19: dose or concentration left out as unconfirmed
Description: To determine a change in optical properties when the compound of [Chemical Formula 1] disclosed herein is modified to allow labeling of a biomolecule, an N-succinimidyl group is introduced to each of Compound 9.7 and Compound 10 to obtain Compound 19 and Compound 20, respectively, in the same manner as described hereinabove. Then, fluorescence characteristics are compared at the same absorption wavelength intensity.
Each of Compound 19 and Compound 20 is added to 5 mL of PBS at a concentration of 10 mg/mL at room temperature to provide samples. Next, 1 mL of PBS is added to 2 mL of each sample and the intensity is measured as a function of absorption wavelength. After adjusting the concentration of a sample so that the absorption intensity (Abs at 650 nm) of Compound 19 may be the same as that of Compound 20 from the resultant data, the sample is diluted many times and the fluorescence thereof is determined by using a plate reader (Perkin Elmer).

intensity of fluorescence wavelength relative to Example 1.3 ([1]; concentration corrected to same absorption intensity, FIG. 1B): approximately two times higher
Molecule: CC[N+]1=C(/C=C/C=C2/N(CCCCCC(=O)NNc3nc(Cl)nc(NCC(=O)O)n3)c3ccc(S(=O)(=O)O)cc3C2(C)C)C(C)(C)c2cc(S(=O)(=O)[O-])ccc21 [Compound 1]

fluorescence intensity versus reference fluorescent dye (Alexa Fluor 555 NHS ester) ([2]; 19.5 nM in 1xPBS pH 7.4, Excitation 552 nm, FIG. 5): relatively higher fluorescence intensity
Relative quantum yield (%) ([3]; 552 compound): 13.34%
Molecule: CC1(CCCCCC(=O)NCCCNc2nc(Cl)nc(NCCCCCC(=O)ON3C(=O)CCC3=O)n2)C(/C=C/C=C2/N(CCCS(=O)(=O)O)c3ccc(S(=O)(=O)O)cc3C2(C)C)=[N+](CCCS(=O)(=O)O)c2ccc(S(=O)(=O)[O-])cc21 (stereo not drawn) [Compound 18]

Average fluorescence intensity (at 665 nm) ([4]; 3 nM in PBS): 412.0
Average fluorescence intensity (at 665 nm) ([4]; 6 nM in PBS): 810.7
Average fluorescence intensity (at 665 nm) ([4]; 12 nM in PBS): 1673.0
Average fluorescence intensity (at 665 nm) ([4]; 25 nM in PBS): 3336.7
Average fluorescence intensity (at 665 nm) ([4]; 49 nM in PBS): 6483.7
Average fluorescence intensity (at 665 nm) ([4]; 98 nM in PBS): 12523.0
Average fluorescence intensity (at 665 nm) ([4]; 196 nM in PBS): 24679.7
Average fluorescence intensity (at 665 nm) ([4]; 393 nM in PBS): 48611.7
Average fluorescence intensity (at 665 nm) ([4]; 785 nM in PBS): 91308.7
Average fluorescence intensity (at 665 nm) ([4]; 1570 nM in PBS): 160778.3
Average fluorescence intensity (at 665 nm) ([4]; 3140 nM in PBS): 240494.7
Average fluorescence intensity (at 665 nm) ([4]; 6280 nM in PBS): 308345.7
Molecule: CC1(CCCCCC(=O)ON2C(=O)CCC2=O)C(/C=C/C=C/C=C2/N(CCCS(=O)(=O)O)c3ccc(S(=O)(=O)O)cc3C2(C)C)=[N+](CCCS(=O)(=O)[O-])c2ccc(S(=O)(=O)O)cc21 (stereo not drawn) [Compound 19]

fluorescence intensity versus reference fluorescent dye (Alexa Fluor 647 NHS ester) ([2]; 19.5 nM in 1xPBS pH 7.4, Excitation 560 nm, FIG. 4): relatively higher fluorescence intensity
Average fluorescence intensity (at 665 nm) ([4]; 3 nM in PBS): 313.3
Average fluorescence intensity (at 665 nm) ([4]; 6 nM in PBS): 721.3
Average fluorescence intensity (at 665 nm) ([4]; 12 nM in PBS): 1454.7
Average fluorescence intensity (at 665 nm) ([4]; 25 nM in PBS): 2994.3
Average fluorescence intensity (at 665 nm) ([4]; 49 nM in PBS): 6693.3
Average fluorescence intensity (at 665 nm) ([4]; 98 nM in PBS): 13859.7
Average fluorescence intensity (at 665 nm) ([4]; 196 nM in PBS): 29396.3
Average fluorescence intensity (at 665 nm) ([4]; 393 nM in PBS): 59756.7
Average fluorescence intensity (at 665 nm) ([4]; 785 nM in PBS): 118049.0
Average fluorescence intensity (at 665 nm) ([4]; 1570 nM in PBS): 209850.3
Average fluorescence intensity (at 665 nm) ([4]; 3140 nM in PBS): 321865.0
Average fluorescence intensity (at 665 nm) ([4]; 6280 nM in PBS): 418428.3
increment of fluorescence intensity compared to Compound 19 ([4]; FIG. 2): about 40%
Relative quantum yield (%) ([3]; 650 compound): 11.70%
Molecule: CC1(CCCCCC(=O)NCCCNc2nc(Cl)nc(NCCCCCC(=O)ON3C(=O)CCC3=O)n2)C(/C=C/C=C/C=C2/N(CCCS(=O)(=O)O)c3ccc(S(=O)(=O)O)cc3C2(C)C)=[N+](CCCS(=O)(=O)[O-])c2ccc(S(=O)(=O)O)cc21 (stereo not drawn) [Compound 20]

absorption wavelength intensity ([1]; same concentration, Example 1.7 versus Example 1.3, FIG. 1A): slightly higher
Molecule: CC[N+]1=C(/C=C/C=C2/N(CCCCCC(=O)O)c3ccc(S(=O)(=O)O)cc3C2(C)C)C(C)(C)c2cc(S(=O)(=O)[O-])ccc21 [Example 1.3]

Relative quantum yield (%) ([3]; 552 compound): 5.64%
Molecule: Alexa Fluor 555 NHS ester [reference compound]

Relative quantum yield (%) ([3]; 650 compound): 7.79%
Molecule: Alexa Fluor 647 NHS ester [reference compound]
